Measured values as given in patent US8993577B2, “Cyclopropyl amide derivatives” (Astrazeneca AB, priority 2009, dated 2015).

Target: T1, human Histamine H3 receptor (hH3R) (Homo sapiens, UniProt Q9Y5N1)
T1 construct: expressed in transfected cells; host or cells: CHO (Chinese Hamster Ovary) cells; membranes
Assay: GTPγS binding assay, antagonist activity in membranes of CHO cells expressing hH3R
Assay type: biochemical
Settings: membranes from CHO cells transfected with hH3R; (R)-α-methyl histamine 30 nM; [35S]GTPγS 0.2 nM
Source text: At least one compound of at least one formula described herein including the compounds described in the Examples hereof, when tested in at least one in vitro assay as substantially described below is active towards H3 receptors. Particularly, at least one compound described herein is an effective H3 receptor ligand. The in vitro activity may be related to in vivo activity but may not be linearly correlated with binding affinity. In the in vitro assay, a compound can be tested for its activity toward H3 receptors and IC50 obtained to determine the activity for a particular compound toward the H3 receptor.
Guanosine 5′-O-(3-[^35S]thio)triphosphate [GTPγS] Binding Assay
A GTPγS binding assay can be used to investigate antagonist properties of compounds in CHO cells (Chinese Hamster Ovary) transfected with human Histamine H3 receptor (hH3R). Membranes from CHO cells expressing hH3R (10 μg/well) are diluted in GTPγS assay buffer (20 mM Hepes, 10 mM MgCl2, 100 mM NaCl, pH 7.4) and preincubated with saponine (3 μg/ml), GDP (10 μM) and PVT-WGA SPA beads (125 μg/well) (Amersham) for 30 minutes. To determine antagonist activity, (R)-α-methyl histamine (30 nM) is added in 96 well SPA plate with [^35S]GTPγS (0.2 nM) and various concentration of H3R antagonists. The GTPγS binding assay is started with addition of the mixture membrane/saponine/GDP and incubated for 90 minutes at room temperature. The amount of bound [^35S]GTPγS is determined by using the MicroBeta Trilux counter (PerkinElmer). The percentage of [^35S]GTPγS bound in each sample is calculated as a percentage of that bound control sample incubated in absence of H3 antagonist. Duplicate determinations are obtained for each concentration, and the data are analyzed using ExcelFit4 to obtain the IC50.
Set forth in Table 1 hereinbelow for the Example 1-34 compounds are IC50 values that were generated in accordance with the GTPγS Binding Assay as essentially described hereinabove.

T1 sequence (Q9Y5N1 whole entry): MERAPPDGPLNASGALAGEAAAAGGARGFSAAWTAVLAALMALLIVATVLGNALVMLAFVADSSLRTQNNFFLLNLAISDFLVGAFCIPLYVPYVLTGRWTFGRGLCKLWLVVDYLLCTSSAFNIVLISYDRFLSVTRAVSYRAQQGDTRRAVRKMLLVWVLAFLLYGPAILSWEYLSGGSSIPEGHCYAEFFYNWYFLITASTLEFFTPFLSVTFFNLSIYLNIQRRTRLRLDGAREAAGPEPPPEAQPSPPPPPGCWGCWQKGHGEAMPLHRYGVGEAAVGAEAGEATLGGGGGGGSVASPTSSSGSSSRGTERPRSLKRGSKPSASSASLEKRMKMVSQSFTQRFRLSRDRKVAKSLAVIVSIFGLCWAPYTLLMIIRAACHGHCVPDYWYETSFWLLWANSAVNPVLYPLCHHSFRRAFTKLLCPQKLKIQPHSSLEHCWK

IC50 [nM]	Molecule
> 1110	4-(trans-2-(4-cyclobutyl-3,3-dimethylpiperazine-1-carbonyl)cyclopropyl)benzamide, enantiomer 2 [Example 26]
5.28	3-((trans)-2-((R)-4-cyclobutyl-2-methylpiperazine-1-carbonyl)cyclopropyl)benzamide, isomer 1 [Example 28]
8.74	C[C@@H]1CN(C(=O)[C@H]2C[C@@H]2c2ccc(C(N)=O)cc2)CCN1C1CCC1 (mixture of isomers) [Example 20, 4-(trans-2-((R)-4-cyclobutyl-3-methylpiperazine-1-carbonyl)cyclopropyl)benzamide, diastereomeric mixture]
576	3-((trans)-2-((R)-4-cyclobutyl-2-methylpiperazine-1-carbonyl)cyclopropyl)benzamide, isomer 2 [Example 29]
8.82	C[C@@H]1CN(C2CCC2)CCN1C(=O)[C@H]1C[C@@H]1c1ccc(C(N)=O)cc1 (mixture of isomers) [Example 7, 4-(trans-2-((R)-4-cyclobutyl-2-methylpiperazine-1-carbonyl)cyclopropyl)benzamide, diastereomeric mixture]
5.66	4-(trans-2-((R)-4-isopropyl-2-methylpiperazine-1-carbonyl)cyclopropyl)benzamide, isomer 1 [Example 2]
326	4-(trans-2-((R)-4-isopropyl-2-methylpiperazine-1-carbonyl)cyclopropyl)benzamide, isomer 2 [Example 3]
1010	4-((trans)-2-((R)-4-cyclobutyl-3-methylpiperazine-1-carbonyl)cyclopropyl)benzamide, isomer 2 [Example 22]
6.83	4-((trans)-2-((R)-4-cyclobutyl-3-methylpiperazine-1-carbonyl)cyclopropyl)benzamide, isomer 1 [Example 21]
29.1	CC[C@@H]1CN(C2CCC2)CCN1C(=O)[C@H]1C[C@@H]1c1ccc(C(N)=O)cc1 (mixture of isomers) [Example 13, 4-(trans-2-((R)-4-cyclobutyl-2-ethylpiperazine-1-carbonyl)cyclopropyl)benzamide, diastereomeric mixture]
16.3	C[C@H]1CN(C2CCC2)CCN1C(=O)[C@H]1C[C@@H]1c1cccc(C(N)=O)c1 (mixture of isomers) [Example 30, 3-(trans-2-((S)-4-cyclobutyl-2-methylpiperazine-1-carbonyl)cyclopropyl)benzamide, diastereomeric mixture]
12	4-(trans-2-(4-cyclobutyl-3,3-dimethylpiperazine-1-carbonyl)cyclopropyl)benzamide, enantiomer 1 [Example 25]
15.3	4-(trans-2-((R)-4-cyclobutyl-2-ethylpiperazine-1-carbonyl)cyclopropyl)benzamide, isomer 1 [Example 14]
15.9	CC1(C)CN(C(=O)[C@H]2C[C@@H]2c2ccc(C(N)=O)cc2)CCN1C1CCC1 (racemic) [Example 24, 4-(trans-2-(4-cyclobutyl-3,3-dimethylpiperazine-1-carbonyl)cyclopropyl)benzamide, enantiomeric mixture]
14.2	C[C@H]1CN(C(=O)[C@H]2C[C@@H]2c2ccc(C(N)=O)cc2)CCN1C1CCC1 (mixture of isomers) [Example 17, 4-(trans-2-((S)-4-cyclobutyl-3-methylpiperazine-1-carbonyl)cyclopropyl)benzamide, diastereomeric mixture]
1270	4-((trans)-2-((S)-4-cyclobutyl-3-methylpiperazine-1-carbonyl)cyclopropyl)benzamide, isomer 2 [Example 19]
8.54	4-(trans-2-((S)-4-isopropyl-2-methylpiperazine-1-carbonyl)cyclopropyl)benzamide, isomer 1 [Example 5]

IC50 [nM]	Molecule
> 1110	CC1(C)CN(C2CCC2)CCN1C(=O)[C@H]1C[C@@H]1c1ccc(C(N)=O)cc1 (racemic) [Example 23, 4-(trans-2-(4-cyclobutyl-2,2-dimethylpiperazine-1-carbonyl)cyclopropyl)benzamide, enantiomeric mixture]
12	C[C@@H]1CN(C2CCC2)CCN1C(=O)[C@H]1C[C@@H]1c1cccc(C(N)=O)c1 (mixture of isomers) [Example 27, 3-(trans-2-((R)-4-cyclobutyl-2-methylpiperazine-1-carbonyl)cyclopropyl)benzamide, diastereomeric mixture]
140	4-(trans-2-((R)-4-cyclobutyl-2-ethylpiperazine-1-carbonyl)cyclopropyl)benzamide, isomer 2 [Example 15]
1320	4-((trans)-2-((S)-4-cyclobutyl-2-methylpiperazine-1-carbonyl)cyclopropyl)benzamide, isomer 2 [Example 12]
8.06	C[C@H]1CN(C2CCC2)CCN1C(=O)[C@H]1C[C@@H]1c1ccc(C(N)=O)cc1 (mixture of isomers) [Example 10, 4-(trans-2-((S)-4-cyclobutyl-2-methylpiperazine-1-carbonyl)cyclopropyl)benzamide, diastereomeric mixture]
41	C[C@H]1CN(C(=O)[C@H]2C[C@@H]2c2cccc(C(N)=O)c2)CCN1C1CCC1 (mixture of isomers) [Example 33, 3-(trans-2-((S)-4-cyclobutyl-3-methylpiperazine-1-carbonyl)cyclopropyl)benzamide, diastereomeric mixture]
5.98	4-((trans)-2-((S)-4-cyclobutyl-3-methylpiperazine-1-carbonyl)cyclopropyl)benzamide, isomer 1 [Example 18]
13.5	CC(C)N1CCN(C(=O)[C@H]2C[C@@H]2c2ccc(C(N)=O)cc2)[C@@H](C)C1 (mixture of isomers) [Example 4, 4-(trans-2-((S)-4-isopropyl-2-methylpiperazine-1-carbonyl)cyclopropyl)benzamide, diastereomeric mixture]
4.94	C[C@@H]1CN(C2CCC2)CCN1C(=O)[C@H]1C[C@@H]1c1ccc(C(N)=O)cc1 [Example 8, 4-((trans)-2-((R)-4-cyclobutyl-2-methylpiperazine-1-carbonyl)cyclopropyl)benzamide, isomer 1]
121	4-((trans)-2-((R)-4-cyclobutyl-2-methylpiperazine-1-carbonyl)cyclopropyl)benzamide, isomer 2 [Example 9]
51.8	C[C@@H]1CN(C(=O)[C@H]2C[C@@H]2c2cccc(C(N)=O)c2)CCN1C1CCC1 (mixture of isomers) [Example 34, 3-(trans-2-((R)-4-cyclobutyl-3-methylpiperazine-1-carbonyl)cyclopropyl)benzamide, diastereomeric mixture]
6.96	3-((trans)-2-((S)-4-cyclobutyl-2-methylpiperazine-1-carbonyl)cyclopropyl)benzamide, isomer 1 [Example 31]
> 1110	CC[C@H]1CN(C2CCC2)CCN1C(=O)[C@H]1C[C@@H]1c1ccc(C(N)=O)cc1 (mixture of isomers) [Example 16, 4-(trans-2-((S)-4-cyclobutyl-2-ethylpiperazine-1-carbonyl)cyclopropyl)benzamide, diastereomeric mixture]
> 1110	3-((trans)-2-((S)-4-cyclobutyl-2-methylpiperazine-1-carbonyl)cyclopropyl)benzamide, isomer 2 [Example 32]
7.48	CC(C)N1CCN(C(=O)[C@H]2C[C@@H]2c2ccc(C(N)=O)cc2)[C@H](C)C1 (mixture of isomers) [Example 1, 4-(trans-2-((R)-4-isopropyl-2-methylpiperazine-1-carbonyl)cyclopropyl)benzamide, diastereomeric Mixture]
5.77	4-((trans)-2-((S)-4-cyclobutyl-2-methylpiperazine-1-carbonyl)cyclopropyl)benzamide, isomer 1 [Example 11]

Molecule	IC50 [nM]
4-(trans-2-((S)-4-isopropyl-2-methylpiperazine-1-carbonyl)cyclopropyl)benzamide, isomer 2 [Example 6]	> 1110
